Source: PubChem BioAssay AID2060909 (Molecular Pharmacology Branch, DTP, NCI, 2025)

System: 362531-283-R-J2-PDC complex spheroid viability
Test: Anticancer human tumor 362531-283-R-J2-PDC patient-derived colon adenocarcinoma cell line growth inhibition [RAS]
Settings: for viability, T/C: stronger effect = lower value
Summary of the method: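 Tumour cells grown as complex spheroids with HUVEC endothelial cells and mesenchymal stem cells, treated with RAS pathway inhibitor combinations. Each agent spans half-log steps from near clinical Cmax, or 10 microM where Cmax is unknown.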

[1] = curve of first compound, second compound 0.00316 µM
[2] = curve of first compound, second compound 0.01 µM
[3] = curve of first compound, second compound 0.0316 µM
[4] = curve of first compound, second compound 0.1 µM
[5] = curve of first compound, second compound 0.316 µM
[6] = curve of first compound, second compound 1 µM
[7] = second compound 0.00316 µM, first compound 0.0316 µM
[8] = second compound 0.00316 µM, first compound 0.1 µM
[9] = second compound 0.00316 µM, first compound 0.316 µM
[10] = second compound 0.00316 µM, first compound 1 µM
[11] = second compound 0.01 µM, first compound 0.0316 µM
[12] = second compound 0.01 µM, first compound 0.1 µM
[13] = second compound 0.01 µM, first compound 0.316 µM
[14] = second compound 0.01 µM, first compound 1 µM
[15] = second compound 0.0316 µM, first compound 0.0316 µM
[16] = second compound 0.0316 µM, first compound 0.1 µM
[17] = second compound 0.0316 µM, first compound 0.316 µM
[18] = second compound 0.0316 µM, first compound 1 µM
[19] = second compound 0.1 µM, first compound 0.0316 µM
[20] = second compound 0.1 µM, first compound 0.1 µM
[21] = second compound 0.1 µM, first compound 0.316 µM
[22] = second compound 0.1 µM, first compound 1 µM
[23] = second compound 0.316 µM, first compound 0.0316 µM
[24] = second compound 0.316 µM, first compound 0.1 µM
[25] = second compound 0.316 µM, first compound 0.316 µM
[26] = second compound 0.316 µM, first compound 1 µM
[27] = second compound 1 µM, first compound 0.0316 µM
[28] = second compound 1 µM, first compound 0.1 µM
[29] = second compound 1 µM, first compound 0.316 µM
[30] = second compound 1 µM, first compound 1 µM
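Further: spheroids exposed to the agents for 7 days before readout.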
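Wherever viability, T/C is given: luminescence viability as percent of DMSO vehicle control wells.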

O=C(c1ccc(F)c(F)c1Nc1ccc(I)cc1F)N1CC(O)([C@@H]2CCCCN2)C1 + C=CC(=O)N1CCN(c2nc(OCC3CCCN3C)nc3c(F)c(-c4nc(N)cc(C)c4C(F)(F)F)c(Cl)cc23)C(C)C1 gave an IC50 [1] of 363 nM, an IC50 [2] of 399 nM and an IC50 [3] of 306 nM. It also gave an IC50 [4] of 368 nM, an IC50 [5] of 377 nM and an IC50 [6] of 349 nM. The viability, T/C (second compound 0.00316 µM, first compound 0.00316 µM) was 94.4%, the viability, T/C (second compound 0.00316 µM, first compound 0.01 µM) was 111% and the viability, T/C [7] was 93.1%. It also gave a viability, T/C [8] of 84.8%, a viability, T/C [9] of 56.6% and a viability, T/C [10] of 4.22%. It also gave a viability, T/C (second compound 0.01 µM, first compound 0.00316 µM) of 100%, a viability, T/C (second compound 0.01 µM, first compound 0.01 µM) of 95.3% and a viability, T/C [11] of 97%. It also gave a viability, T/C [12] of 83.9%, a viability, T/C [13] of 61.4% and a viability, T/C [14] of 6.87%. It also gave a viability, T/C (second compound 0.0316 µM, first compound 0.00316 µM) of 103%, a viability, T/C (second compound 0.0316 µM, first compound 0.01 µM) of 99.2% and a viability, T/C [15] of 95.1%. It also gave a viability, T/C [16] of 80.8%, a viability, T/C [17] of 48.9% and a viability, T/C [18] of 10.1%. It also gave a viability, T/C (second compound 0.1 µM, first compound 0.00316 µM) of 101%, a viability, T/C (second compound 0.1 µM, first compound 0.01 µM) of 97.5% and a viability, T/C [19] of 88.8%. The viability, T/C [20] was 79.6%, the viability, T/C [21] was 59.6% and the viability, T/C [22] was 4.51%. The viability, T/C (second compound 0.316 µM, first compound 0.00316 µM) was 99.7%, the viability, T/C (second compound 0.316 µM, first compound 0.01 µM) was 97.6% and the viability, T/C [23] was 91.9%. The viability, T/C [24] was 81.9%, the viability, T/C [25] was 58.3% and the viability, T/C [26] was 6.58%. For the same compound, the viability, T/C (second compound 1 µM, first compound 0.00316 µM) was 101%, the viability, T/C (second compound 1 µM, first compound 0.01 µM) was 94.7% and the viability, T/C [27] was 81.1%. The viability, T/C [28] was 79.7%, the viability, T/C [29] was 55.5% and the viability, T/C [30] was 8.33%.

Cc1nc(N2CCC3(CC2)COC(C)C3N)c(CO)nc1Sc1ccnc(N)c1Cl (stereo not drawn) + C=CC(=O)N1CCN(c2nc(OCC3CCCN3C)nc3c(F)c(-c4nc(N)cc(C)c4C(F)(F)F)c(Cl)cc23)C(C)C1 gave an IC50 [1] greater than 10000 nM, an IC50 [2] greater than 10000 nM and an IC50 [3] greater than 10000 nM. The IC50 [4] was greater than 10000 nM, the IC50 [5] was greater than 10000 nM and the IC50 [6] was greater than 10000 nM. For the same compound, the viability, T/C [7] was 111%, the viability, T/C [8] was 102% and the viability, T/C [9] was 103%. For the same compound, the viability, T/C [10] was 94.3%, the viability, T/C (second compound 0.00316 µM, first compound 3.16 µM) was 83.5% and the viability, T/C (second compound 0.00316 µM, first compound 10 µM) was 69.2%. The viability, T/C [11] was 110%, the viability, T/C [12] was 101% and the viability, T/C [13] was 97.5%. The viability, T/C [14] was 86.3%, the viability, T/C (second compound 0.01 µM, first compound 3.16 µM) was 85.9% and the viability, T/C (second compound 0.01 µM, first compound 10 µM) was 77.5%. It also gave a viability, T/C [15] of 111%, a viability, T/C [16] of 111% and a viability, T/C [17] of 99.3%. The viability, T/C [18] was 96.8%, the viability, T/C (second compound 0.0316 µM, first compound 3.16 µM) was 81.5% and the viability, T/C (second compound 0.0316 µM, first compound 10 µM) was 73.8%. For the same compound, the viability, T/C [19] was 117%, the viability, T/C [20] was 104% and the viability, T/C [21] was 98.4%. The viability, T/C [22] was 92.4%, the viability, T/C (second compound 0.1 µM, first compound 3.16 µM) was 82.4% and the viability, T/C (second compound 0.1 µM, first compound 10 µM) was 79.8%. The viability, T/C [23] was 111%, the viability, T/C [24] was 101% and the viability, T/C [25] was 118%. For the same compound, the viability, T/C [26] was 89.2%, the viability, T/C (second compound 0.316 µM, first compound 3.16 µM) was 88.5% and the viability, T/C (second compound 0.316 µM, first compound 10 µM) was 79.3%. It also gave a viability, T/C [27] of 108%, a viability, T/C [28] of 111% and a viability, T/C [29] of 101%. For the same compound, the viability, T/C [30] was 86.1%, the viability, T/C (second compound 1 µM, first compound 3.16 µM) was 83.1% and the viability, T/C (second compound 1 µM, first compound 10 µM) was 68%.

For CCn1c(-c2cccnc2C(C)OC)c2c3cc(ccc31)N1CCOC(CC(NC(=O)C(C(C)C)N(C)C(=O)C3(F)CCN(C(=O)C#CC(C)(C)N(C)C)CC3)C(=O)N3CCCC(N3)C(=O)OCC(C)(C)C2)C1 (stereo not drawn), the viability, T/C (compound 0.000949 µM) was 103% [middle of 8 runs], the viability, T/C (compound 0.003 µM) was 102% [middle of 8 runs] and the viability, T/C (compound 0.00949 µM) was 107% [middle of 8 runs]. The viability, T/C (compound 0.03 µM) was 103% [middle of 8 runs], the viability, T/C (compound 0.0949 µM) was 104% [middle of 8 runs] and the viability, T/C (compound 0.3 µM) was 100% [middle of 8 runs]. It also gave an IC50 (compound alone, run of 07/09/2024) greater than 300 nM.

C=CC(=O)N1CCN(c2nc(OCC3CCCN3C)nc3c(F)c(-c4nc(N)cc(C)c4C(F)(F)F)c(Cl)cc23)C(C)C1 (stereo not drawn) + CCn1c(-c2cccnc2C(C)OC)c2c3cc(ccc31)N1CCOC(CC(NC(=O)C(C(C)C)N(C)C(=O)C3(F)CCN(C(=O)C#CC(C)(C)N(C)C)CC3)C(=O)N3CCCC(N3)C(=O)OCC(C)(C)C2)C1 was tested, and the IC50 (curve of first compound, second compound 0.000949 µM) was greater than 1000 nM, the IC50 (curve of first compound, second compound 0.003 µM) was greater than 1000 nM and the IC50 (curve of first compound, second compound 0.00949 µM) was greater than 1000 nM. For the same compound, the IC50 (curve of first compound, second compound 0.03 µM) was greater than 1000 nM, the IC50 (curve of first compound, second compound 0.0949 µM) was greater than 1000 nM and the IC50 (curve of first compound, second compound 0.3 µM) was greater than 1000 nM. It also gave a viability, T/C (second compound 0.000949 µM, first compound 0.00316 µM) of 98.9%, a viability, T/C (second compound 0.000949 µM, first compound 0.01 µM) of 106% and a viability, T/C (second compound 0.000949 µM, first compound 0.0316 µM) of 106%. For the same compound, the viability, T/C (second compound 0.000949 µM, first compound 0.1 µM) was 97%, the viability, T/C (second compound 0.000949 µM, first compound 0.316 µM) was 107% and the viability, T/C (second compound 0.000949 µM, first compound 1 µM) was 95.2%. It also gave a viability, T/C (second compound 0.003 µM, first compound 0.00316 µM) of 111%, a viability, T/C (second compound 0.003 µM, first compound 0.01 µM) of 104% and a viability, T/C (second compound 0.003 µM, first compound 0.0316 µM) of 98.5%. It also gave a viability, T/C (second compound 0.003 µM, first compound 0.1 µM) of 92.4%, a viability, T/C (second compound 0.003 µM, first compound 0.316 µM) of 96.1% and a viability, T/C (second compound 0.003 µM, first compound 1 µM) of 91.8%. The viability, T/C (second compound 0.00949 µM, first compound 0.00316 µM) was 101%, the viability, T/C (second compound 0.00949 µM, first compound 0.01 µM) was 122% and the viability, T/C (second compound 0.00949 µM, first compound 0.0316 µM) was 97.2%. For the same compound, the viability, T/C (second compound 0.00949 µM, first compound 0.1 µM) was 100%, the viability, T/C (second compound 0.00949 µM, first compound 0.316 µM) was 101% and the viability, T/C (second compound 0.00949 µM, first compound 1 µM) was 98.8%. For the same compound, the viability, T/C (second compound 0.03 µM, first compound 0.00316 µM) was 100%, the viability, T/C (second compound 0.03 µM, first compound 0.01 µM) was 117% and the viability, T/C (second compound 0.03 µM, first compound 0.0316 µM) was 87%. It also gave a viability, T/C (second compound 0.03 µM, first compound 0.1 µM) of 96.2%, a viability, T/C (second compound 0.03 µM, first compound 0.316 µM) of 101% and a viability, T/C (second compound 0.03 µM, first compound 1 µM) of 106%. The viability, T/C (second compound 0.0949 µM, first compound 0.00316 µM) was 93.6%, the viability, T/C (second compound 0.0949 µM, first compound 0.01 µM) was 95.7% and the viability, T/C (second compound 0.0949 µM, first compound 0.0316 µM) was 103%. It also gave a viability, T/C (second compound 0.0949 µM, first compound 0.1 µM) of 101%, a viability, T/C (second compound 0.0949 µM, first compound 0.316 µM) of 95.6% and a viability, T/C (second compound 0.0949 µM, first compound 1 µM) of 113%. It also gave a viability, T/C (second compound 0.3 µM, first compound 0.00316 µM) of 100%, a viability, T/C (second compound 0.3 µM, first compound 0.01 µM) of 109% and a viability, T/C (second compound 0.3 µM, first compound 0.0316 µM) of 108%. It also gave a viability, T/C (second compound 0.3 µM, first compound 0.1 µM) of 103%, a viability, T/C (second compound 0.3 µM, first compound 0.316 µM) of 94.4% and a viability, T/C (second compound 0.3 µM, first compound 1 µM) of 100%.
